According to patent US12319663B2, “Alkene-containing amide compound and application thereof” (SHENYANG SINOCHEM AGROCHEMICALS R&D CO., LTD., priority 2019, dated 2025):

Key:
Format in all cases: in vivo
barnyard grass = experiment: Herbicidal activity, post-emergence stem and leaf spray, greenhouse: barnyard grass control
Description: (§1) Seeds of broadleaf weeds (zinnia and piemarker) or grassy weeds (green bristlegrass and barnyard grass) are respectively sown in a paper cup having a diameter of 7 cm and containing nutrient soil; after sowing, the seeds are covered with 1 cm of soil; the soil is pressed and watered, and then the seeds are cultivated in a greenhouse according to a conventional method; and stems and leaves are sprayed after 2-3 leaf stage of the weeds.
(§2) After the original medicinal acetone was dissolved, the test requires to use 1% of Tween 80 to stand in running water to prepare the solution to be tested with a required concentration. According to the design dose of the test, spray treatment was carried out on a track-type crop sprayer (designed and produced by British Engineer Research Ltd.) (spray pressure is 1.95 kg/cm^2, spray volume is 50 L/hm^2 and track speed is 1.48 km/h). The test was repeated for three times. The test material was treated and then placed in an operation hall. The medicinal liquid was naturally dried in the shade, and then was placed in a greenhouse and managed according to the conventional method, The response of the weeds to the drug was observed and recorded, After treatment, the control effects of the test drug on the weeds were visually inspected regularly, expressed by 0-100%. “0” represents no control effect and “100%” represents complete killing.
According to the above test method, part of the compounds of the formula I and KC are selected for the activity test of controlling the barnyard grass.

zinnia = experiment: Herbicidal activity, post-emergence stem and leaf spray, greenhouse: zinnia control; conditions: visual, 0 = no control effect, 100% = complete killing
Description: as §1, §2
According to the above test method, part of the compounds of the formula I and KC are selected for activity test of controlling the zinnia.

green bristlegrass = experiment: Herbicidal activity, post-emergence stem and leaf spray, greenhouse: green bristlegrass control
Description: as §1, §2
According to the above test method, part of the compounds of the formula I and KC are selected for the activity test of controlling the green bristlegrass.

piemarker = experiment: Herbicidal activity, post-emergence stem and leaf spray, greenhouse: piemarker control
Description: as §1, §2
According to the above test method, part of the compounds of the formula I and KC are selected for activity test of controlling the piemarker. […]

[1] = dose 37.5 g a.i./hm2, post-emergence stem and leaf spray
[2] = dose 150 g a.i./hm2, post-emergence stem and leaf spray
[3] = dose 600 g a.i./hm2, post-emergence stem and leaf spray

CCCOc1c(S(C)(=O)=O)ccc(C(=O)N(C(=O)/C=C/c2ccccc2)c2nnnn2C)c1C [Compound 1-296]
Barnyard grass control activity (after emergence, control effect %) (barnyard grass; [1]): 100%
Barnyard grass control activity (after emergence, control effect %) (barnyard grass; [2]): 100%
Barnyard grass control activity (after emergence, control effect %) (barnyard grass; [3]): 100%

Cc1c(S(C)(=O)=O)ccc(C(=O)N(C(=O)C2=CCCCC2)c2nnnn2C)c1Cl [Compound 2-97]
Zinnia control activity (after emergence, control effect %) (zinnia; dose 37.5 g a.i./hm^2): 100%
Zinnia control activity (after emergence, control effect %) (zinnia; dose 150 g a.i./hm^2): 100%
Zinnia control activity (after emergence, control effect %) (zinnia; dose 600 g a.i./hm^2): 100%
Green bristlegrass control activity (after emergence, control effect %) (green bristlegrass; [1]): 80%
Green bristlegrass control activity (after emergence, control effect %) (green bristlegrass; [2]): 95%
Green bristlegrass control activity (after emergence, control effect %) (green bristlegrass; [3]): 100%
Piemarker control activity (after emergence, control effect %) (piemarker; [1]): 95%
Piemarker control activity (after emergence, control effect %) (piemarker; [2]): 100%
Piemarker control activity (after emergence, control effect %) (piemarker; [3]): 100%
Barnyard grass control activity (after emergence, control effect %) (barnyard grass; [1]): 90%
Barnyard grass control activity (after emergence, control effect %) (barnyard grass; [2]): 95%
Barnyard grass control activity (after emergence, control effect %) (barnyard grass; [3]): 100%

Cn1nnnc1N(C(=O)C1=CCCCC1)C(=O)c1ccc(S(C)(=O)=O)cc1Cl [Compound 2-269]
Piemarker control activity (after emergence, control effect %) (piemarker; [1]): 90%
Piemarker control activity (after emergence, control effect %) (piemarker; [2]): 95%
Piemarker control activity (after emergence, control effect %) (piemarker; [3]): 100%
Barnyard grass control activity (after emergence, control effect %) (barnyard grass; [1]): 80%
Barnyard grass control activity (after emergence, control effect %) (barnyard grass; [2]): 90%
Barnyard grass control activity (after emergence, control effect %) (barnyard grass; [3]): 95%

COCc1c(S(C)(=O)=O)ccc(C(=O)N(C(=O)C2CC=CC2)c2nnnn2C)c1Cl [Compound 2-106]
Zinnia control activity (after emergence, control effect %) (zinnia; dose 37.5 g a.i./hm^2): 100%
Zinnia control activity (after emergence, control effect %) (zinnia; dose 150 g a.i./hm^2): 100%
Zinnia control activity (after emergence, control effect %) (zinnia; dose 600 g a.i./hm^2): 100%

Cn1nnnc1N(C(=O)C1=CCCC1)C(=O)c1ccc(C(F)(F)F)cc1S(C)(=O)=O [Compound 2-266]
Zinnia control activity (after emergence, control effect %) (zinnia; dose 37.5 g a.i./hm^2): 95%
Zinnia control activity (after emergence, control effect %) (zinnia; dose 150 g a.i./hm^2): 98%
Zinnia control activity (after emergence, control effect %) (zinnia; dose 600 g a.i./hm^2): 100%
Green bristlegrass control activity (after emergence, control effect %) (green bristlegrass; [1]): 90%
Green bristlegrass control activity (after emergence, control effect %) (green bristlegrass; [2]): 95%
Green bristlegrass control activity (after emergence, control effect %) (green bristlegrass; [3]): 100%
Piemarker control activity (after emergence, control effect %) (piemarker; [1]): 90%
Piemarker control activity (after emergence, control effect %) (piemarker; [2]): 95%
Piemarker control activity (after emergence, control effect %) (piemarker; [3]): 100%
Barnyard grass control activity (after emergence, control effect %) (barnyard grass; [1]): 85%
Barnyard grass control activity (after emergence, control effect %) (barnyard grass; [2]): 90%
Barnyard grass control activity (after emergence, control effect %) (barnyard grass; [3]): 95%

COCc1c(S(C)(=O)=O)ccc(C(=O)N(C(=O)C2=CCCC2)c2nnnn2C)c1Cl [Compound 2-105]
Barnyard grass control activity (after emergence, control effect %) (barnyard grass; [1]): 90%
Barnyard grass control activity (after emergence, control effect %) (barnyard grass; [2]): 90%
Barnyard grass control activity (after emergence, control effect %) (barnyard grass; [3]): 100%

COCc1c(S(C)(=O)=O)ccc(C(=O)N(C(=O)/C=C/c2ccccc2)c2nnnn2C)c1Cl [Compound 1-24]
Zinnia control activity (after emergence, control effect %) (zinnia; dose 37.5 g a.i./hm^2): 100%
Zinnia control activity (after emergence, control effect %) (zinnia; dose 150 g a.i./hm^2): 100%
Zinnia control activity (after emergence, control effect %) (zinnia; dose 600 g a.i./hm^2): 100%
Piemarker control activity (after emergence, control effect %) (piemarker; [1]): 100%
Piemarker control activity (after emergence, control effect %) (piemarker; [2]): 100%
Piemarker control activity (after emergence, control effect %) (piemarker; [3]): 100%
Barnyard grass control activity (after emergence, control effect %) (barnyard grass; [1]): 95%
Barnyard grass control activity (after emergence, control effect %) (barnyard grass; [2]): 95%
Barnyard grass control activity (after emergence, control effect %) (barnyard grass; [3]): 100%

COc1c(S(C)(=O)=O)ccc(C(=O)N(C(=O)/C=C/c2ccccc2)c2nnnn2C)c1C [Compound 1-95]
Zinnia control activity (after emergence, control effect %) (zinnia; dose 37.5 g a.i./hm^2): 100%
Zinnia control activity (after emergence, control effect %) (zinnia; dose 150 g a.i./hm^2): 100%
Zinnia control activity (after emergence, control effect %) (zinnia; dose 600 g a.i./hm^2): 100%

COCCOc1c(S(C)(=O)=O)ccc(C(=O)N(C(=O)C2=CCCCC2)c2nnnn2C)c1C [Compound 2-19]
Barnyard grass control activity (after emergence, control effect %) (barnyard grass; [1]): 90%
Barnyard grass control activity (after emergence, control effect %) (barnyard grass; [2]): 100%
Barnyard grass control activity (after emergence, control effect %) (barnyard grass; [3]): 100%

Cn1nnnc1N(C(=O)c1ccccc1)C(=O)c1ccc(C(F)(F)F)cc1S(C)(=O)=O [KC, reference compound]
Zinnia control activity (after emergence, control effect %) (zinnia; dose 37.5 g a.i./hm^2): 65%
Zinnia control activity (after emergence, control effect %) (zinnia; dose 150 g a.i./hm^2): 90%
Green bristlegrass control activity (after emergence, control effect %) (green bristlegrass; [1]): 45%
Green bristlegrass control activity (after emergence, control effect %) (green bristlegrass; [2]): 70%
Piemarker control activity (after emergence, control effect %) (piemarker; [1]): 60%
Piemarker control activity (after emergence, control effect %) (piemarker; [2]): 85%
Barnyard grass control activity (after emergence, control effect %) (barnyard grass; [1]): 50%
Barnyard grass control activity (after emergence, control effect %) (barnyard grass; [2]): 65%

Cc1c(C(=O)N(C(=O)C2=CCCCC2)c2nnnn2C)ccc(S(C)(=O)=O)c1OCC(F)(F)F [Compound 2-13]
Zinnia control activity (after emergence, control effect %) (zinnia; dose 37.5 g a.i./hm^2): 100%
Zinnia control activity (after emergence, control effect %) (zinnia; dose 150 g a.i./hm^2): 100%
Zinnia control activity (after emergence, control effect %) (zinnia; dose 600 g a.i./hm^2): 100%
Barnyard grass control activity (after emergence, control effect %) (barnyard grass; [1]): 80%
Barnyard grass control activity (after emergence, control effect %) (barnyard grass; [2]): 100%
Barnyard grass control activity (after emergence, control effect %) (barnyard grass; [3]): 100%

Cc1c(C(=O)N(C(=O)C2=CCCC2)c2nnnn2C)ccc(S(C)(=O)=O)c1OCC(F)(F)F [Compound 2-15]
Zinnia control activity (after emergence, control effect %) (zinnia; dose 37.5 g a.i./hm^2): 100%
Zinnia control activity (after emergence, control effect %) (zinnia; dose 150 g a.i./hm^2): 100%
Zinnia control activity (after emergence, control effect %) (zinnia; dose 600 g a.i./hm^2): 100%
Green bristlegrass control activity (after emergence, control effect %) (green bristlegrass; [1]): 90%
Green bristlegrass control activity (after emergence, control effect %) (green bristlegrass; [2]): 100%
Green bristlegrass control activity (after emergence, control effect %) (green bristlegrass; [3]): 100%
Barnyard grass control activity (after emergence, control effect %) (barnyard grass; [1]): 85%
Barnyard grass control activity (after emergence, control effect %) (barnyard grass; [2]): 100%
Barnyard grass control activity (after emergence, control effect %) (barnyard grass; [3]): 100%

Cn1nnnc1N(C(=O)/C=C/c1ccc2c(c1)OCO2)C(=O)c1ccc(C(F)(F)F)cc1S(C)(=O)=O [Compound 1-8]
Zinnia control activity (after emergence, control effect %) (zinnia; dose 37.5 g a.i./hm^2): 90%
Zinnia control activity (after emergence, control effect %) (zinnia; dose 150 g a.i./hm^2): 95%
Zinnia control activity (after emergence, control effect %) (zinnia; dose 600 g a.i./hm^2): 100%
Piemarker control activity (after emergence, control effect %) (piemarker; [1]): 100%
Piemarker control activity (after emergence, control effect %) (piemarker; [2]): 100%
Piemarker control activity (after emergence, control effect %) (piemarker; [3]): 100%

COCc1c(S(C)(=O)=O)ccc(C(=O)N(C(=O)C2=CCCCC2)c2nnnn2C)c1Cl [Compound 2-103]
Zinnia control activity (after emergence, control effect %) (zinnia; dose 37.5 g a.i./hm^2): 90%
Zinnia control activity (after emergence, control effect %) (zinnia; dose 150 g a.i./hm^2): 95%
Zinnia control activity (after emergence, control effect %) (zinnia; dose 600 g a.i./hm^2): 100%
Green bristlegrass control activity (after emergence, control effect %) (green bristlegrass; [1]): 80%
Green bristlegrass control activity (after emergence, control effect %) (green bristlegrass; [2]): 90%
Green bristlegrass control activity (after emergence, control effect %) (green bristlegrass; [3]): 95%
Piemarker control activity (after emergence, control effect %) (piemarker; [1]): 95%
Piemarker control activity (after emergence, control effect %) (piemarker; [2]): 100%
Piemarker control activity (after emergence, control effect %) (piemarker; [3]): 100%
Barnyard grass control activity (after emergence, control effect %) (barnyard grass; [1]): 80%
Barnyard grass control activity (after emergence, control effect %) (barnyard grass; [2]): 90%
Barnyard grass control activity (after emergence, control effect %) (barnyard grass; [3]): 100%

Cc1c(S(C)(=O)=O)ccc(C(=O)N(C(=O)/C=C/c2ccccc2)c2nnnn2C)c1Cl [Compound 1-19]
Zinnia control activity (after emergence, control effect %) (zinnia; dose 37.5 g a.i./hm^2): 95%
Zinnia control activity (after emergence, control effect %) (zinnia; dose 150 g a.i./hm^2): 95%
Zinnia control activity (after emergence, control effect %) (zinnia; dose 600 g a.i./hm^2): 100%
Piemarker control activity (after emergence, control effect %) (piemarker; [1]): 90%
Piemarker control activity (after emergence, control effect %) (piemarker; [2]): 90%
Piemarker control activity (after emergence, control effect %) (piemarker; [3]): 98%

COCCOCc1c(S(C)(=O)=O)ccc(C(=O)N(C(=O)C2=CCCCC2)c2nnnn2C)c1Cl [Compound 2-270]
Green bristlegrass control activity (after emergence, control effect %) (green bristlegrass; [1]): 90%
Green bristlegrass control activity (after emergence, control effect %) (green bristlegrass; [2]): 95%
Green bristlegrass control activity (after emergence, control effect %) (green bristlegrass; [3]): 98%
Piemarker control activity (after emergence, control effect %) (piemarker; [1]): 90%
Piemarker control activity (after emergence, control effect %) (piemarker; [2]): 98%
Piemarker control activity (after emergence, control effect %) (piemarker; [3]): 100%
Barnyard grass control activity (after emergence, control effect %) (barnyard grass; [1]): 90%
Barnyard grass control activity (after emergence, control effect %) (barnyard grass; [2]): 95%
Barnyard grass control activity (after emergence, control effect %) (barnyard grass; [3]): 100%

Cc1c(C(=O)N(C(=O)/C=C/c2ccccc2)c2nnnn2C)ccc(S(C)(=O)=O)c1OCC1CCCO1 (centres unmarked) [Compound 1-100]
Barnyard grass control activity (after emergence, control effect %) (barnyard grass; [1]): 100%
Barnyard grass control activity (after emergence, control effect %) (barnyard grass; [2]): 100%
Barnyard grass control activity (after emergence, control effect %) (barnyard grass; [3]): 100%

Cn1nnnc1N(C(=O)/C=C/c1ccccc1)C(=O)c1ccc(C(F)(F)F)cc1S(C)(=O)=O [Compound 1-1]
Zinnia control activity (after emergence, control effect %) (zinnia; dose 37.5 g a.i./hm^2): 100%
Zinnia control activity (after emergence, control effect %) (zinnia; dose 150 g a.i./hm^2): 100%
Zinnia control activity (after emergence, control effect %) (zinnia; dose 600 g a.i./hm^2): 100%
Piemarker control activity (after emergence, control effect %) (piemarker; [1]): 100%
Piemarker control activity (after emergence, control effect %) (piemarker; [2]): 100%
Piemarker control activity (after emergence, control effect %) (piemarker; [3]): 100%
